Reference: PubChem BioAssay (NCI)
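Briefly, cells in 96-well plates were exposed to five compound concentrations for 48 h, and endpoints were estimated by linear interpolation. TGI: concentration producing complete growth inhibition.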

Key:
Test in all cases: inhibition of tumour cell growth, NCI panel, 48 h
SNB-19 CNS = system: SNB-19 CNS
NCI/ADR-RES ovarian = system: NCI/ADR-RES ovarian
SW-620 colon = system: SW-620 colon
LOX IMVI melanoma = system: LOX IMVI melanoma
MDA-N = system: MDA-N
HS 578T breast = system: HS 578T breast
MOLT-4 leukemia = system: MOLT-4 leukemia
EKVX NSCLC = system: EKVX NSCLC
NCI-H23 lung = system: NCI-H23 lung
PC-3 prostate = system: PC-3 prostate
HOP-62 NSCLC = system: HOP-62 NSCLC
A549 NSCLC = system: A549 NSCLC
SF-539 CNS = system: SF-539 CNS
KM12 colon = system: KM12 colon
COLO 205 colon = system: COLO 205 colon
NCI-H460 lung = system: NCI-H460 lung
SK-MEL-28 melanoma = system: SK-MEL-28 melanoma
NCI-H226 lung = system: NCI-H226 lung
HCT-15 colon = system: HCT-15 colon
TK-10 renal = system: TK-10 renal

| SMILES | TGI (SNB-19 CNS) [µM] | TGI (NCI/ADR-RES ovarian) [µM] | TGI (SW-620 colon) [µM] | TGI (LOX IMVI melanoma) [µM] | TGI (MDA-N) [µM] | TGI (HS 578T breast) [µM] | TGI (MOLT-4 leukemia) [µM] | TGI (EKVX NSCLC) [µM] | TGI (NCI-H23 lung) [µM] | TGI (PC-3 prostate) [µM] | TGI (HOP-62 NSCLC) [µM] | TGI (A549 NSCLC) [µM] | TGI (SF-539 CNS) [µM] | TGI (KM12 colon) [µM] | TGI (COLO 205 colon) [µM] | TGI (NCI-H460 lung) [µM] | TGI (SK-MEL-28 melanoma) [µM] | TGI (NCI-H226 lung) [µM] | TGI (HCT-15 colon) [µM] | TGI (TK-10 renal) [µM] |
| --- | --- | --- | --- | --- | --- | --- | --- | --- | --- | --- | --- | --- | --- | --- | --- | --- | --- | --- | --- | --- |
| COC(=O)C1(Cc2ccccc2C)Cc2ccc(C)cc2C1=O (stereo not given) | > 100 | 65.6 | > 100 | 45.9 | > 100 | > 100 | 74.7 | > 100 | > 100 | 92.6 | > 100 | > 100 | > 100 | > 100 | 38.1 | > 100 | > 100 | > 100 | > 100 | 85.9 |
| COc1ccc(C(c2ccccc2)N2C(=O)CCC2C(=O)O)cc1OC (stereo not given) | > 100 | > 100 | > 100 | > 100 | > 100 | > 100 | > 100 | > 100 | > 100 | > 100 | > 100 | > 100 | > 100 | > 100 | > 100 | > 100 | > 100 | > 100 | > 100 | > 100 |
| O=C1Nc2ccccc2/C1=C\c1c(Cl)[nH]c2ccccc12 | 5.21 | 1.31 | 5.45 | 6.15 | 0.486 | 2.57 | 12.6 | 5.29 | 16.1 | 3.46 | 7.51 | 13.3 | 1.43 | 1.67 | 1.23 | 2.59 | 0.78 | 35.5 | 17.5 | 6.65 |
| COC(=O)C1CCCCCCCCCCC12SCCCS2 (stereo not given) | 83.2 | 43.1 | 81.9 | 35.4 | > 100 | 90.5 | 45 | 35.6 | > 100 | 50 | 41.2 | 36.7 | 47.4 | 36 | 37.4 | > 100 | 36.1 | 42.8 | > 100 | 41.6 |
| CC(C)Cn1cnnc1NS(=O)(=O)c1cc(C(=O)NN)c(Cl)cc1S | > 10 | > 10 | > 10 | > 10 | > 10 | > 10 | > 10 | > 10 | > 10 | > 10 | > 10 | > 10 | > 10 | > 10 | > 10 | > 10 | > 10 | > 10 | > 10 | > 10 |
| O=Cc1cc(O)ccc1Br | > 100 | > 76.2 | > 100 | 33.4 | 25.6 | > 100 | 43.8 | > 100 | 71 | > 78.4 | > 96.2 | > 100 | 60.5 | > 81.6 | > 100 | > 100 | > 100 | > 91.7 | 40.7 | 99 |
| O=c1[nH]nc(Cc2ccc(Cl)cc2)n1Nc1ccccc1 | > 100 | > 100 | > 100 | > 100 | > 100 | > 100 | > 100 | > 100 | > 100 | > 100 | > 100 | > 100 | > 100 | > 100 | > 100 | > 100 | > 100 | > 100 | > 100 | > 100 |
